{"source": "patent US9708314B2", "about": "“Heterocyclic amide compound” (NISSAN CHEMICAL INDUSTRIES, LTD., priority 2013, dated 2017)", "assay_type_in_all_cases": "in vivo", "conditions_in_all_cases": "application to foliage, 320 g/ha", "key": {"[1]": {"test_system": "Brassica campestris L.", "test": "Test Example 4: effect on crop by application to foliage (diluvial soil, plastic box)", "how_it_was_run": "(§1)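 Scores run from 0 (herbicidal ratio ≤5%) to 5 (≥90%, almost fully withered) and were assessed three weeks after foliar spraying. Seedlings had been raised for 14 days at 25-30° C in sterilized diluvial soil before treatment, with the emulsion diluted in water to the stated g/ha dose.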"}, "[2]": {"test_system": "Glycine max", "test": "Test Example 4: effect on crop by application to foliage (diluvial soil, plastic box)", "how_it_was_run": "as §1"}, "[3]": {"test_system": "Beta vulgaris ssp. vulgaris", "test": "Test Example 4: effect on crop by application to foliage (diluvial soil, plastic box)", "how_it_was_run": "as §1"}, "[4]": {"test_system": "directly sowed Oryza sativa", "test": "Test Example 4: effect on crop by application to foliage (diluvial soil, plastic box)", "how_it_was_run": "as §1"}, "[5]": {"test_system": "Zea mays", "test": "Test Example 4: effect on crop by application to foliage (diluvial soil, plastic box)", "how_it_was_run": "as §1"}, "[6]": {"test_system": "Triticum aestivum", "test": "Test Example 4: effect on crop by application to foliage (diluvial soil, plastic box)", "how_it_was_run": "as §1"}, "[7]": {"test_system": "Apera spica-venti.", "test": "Test Example 4: herbicidal effect by application to foliage (diluvial soil, plastic box)", "from_the_text": "(§2) 5 Herbicidal ratio of 90% or more (almost completely withered) 4 Herbicidal ratio of 70% or more and less than 90% 3 Herbicidal ratio of 40% or more and less than 70% 2 Herbicidal ratio of 20% or more and less than 40% 1 Herbicidal ratio of 5% or more and less than 20% 0 Herbicidal ratio of 5% or less (almost no effect) [Test Example 4] Herbicidal Effect Test by Application to Foliage Sterilized diluvial soil was placed in a plastic box having a length of 21 cm, a width of 13 cm, and a depth of 7 cm. Each of the seeds of Digitaria ciliaris, Setaria viridis, Echinochloa crus-galli var. crus-galli, Avena fatua, Alopecurus myosuroides, Lolium multiflorum Lam., Apera spica-venti., Abutilon theophrasti, Amaranthus retroflexus, Chenopodium album, Stellaria media, Galium spurium, Veronica persica, Zea mays, Glycine max, Oryza sativa, Triticum aestivum, Beta vulgaris ssp. vulgaris, and Brassica campestris L. was sowed in a spot-like manner and was covered with the soil of about 1.5 cm thick. Thereafter, the plants were grown in the greenhouse of 25° C. to 30° C. After the plants were grown for 14 days, the emulsion agent containing the compound of the present invention prepared in accordance with Formulation Example 2 was diluted with water so as to be a predetermined herbicide amount and the diluted compound was uniformly applied to a stem and leaf part with a small-size spray. Three weeks after the herbicide application, effects on each plant were investigated in accordance with the criteria of Test Example 1. A: Echinochloa oryzicola Vasing., B: Scirpus juncoides, C: Monochoria vaginalis, D: Leptochloa chinensis, E: Cyperus difformis, F: Digitaria ciliaris, G: Setaria viridis, H: Echinochloa crus-galli var. crus-galli, I: Avena fatua, J: Alopecurus myosuroides, K: Lolium multiflorum Lam., L: Apera spica-venti., M: Abutilon theophrasti, N: Amaranthus retroflexus, O: Chenopodium album, P: Stellaria media, Q: Galium spurium, R: Veronica persica, a: transplanted Oryza sativa, b: directly sowed Oryza sativa, c: Zea mays, d: Glycine max, e: Triticum aestivum, f: Beta vulgaris ssp. vulgaris, and g: Brassica campestris L. The application herbicide amount (g/ha) means an amount that a concentration is adjusted so that, when an application amount is converted into per hectare (1 ha), the herbicide is applied by the number of grams (g) of the described value."}, "[8]": {"test_system": "Lolium multiflorum Lam.", "test": "Test Example 4: herbicidal effect by application to foliage (diluvial soil, plastic box)", "from_the_text": "as §2"}, "[9]": {"test_system": "Abutilon theophrasti", "test": "Test Example 4: herbicidal effect by application to foliage (diluvial soil, plastic box)", "from_the_text": "as §2"}, "[10]": {"test_system": "Amaranthus retroflexus", "test": "Test Example 4: herbicidal effect by application to foliage (diluvial soil, plastic box)", "from_the_text": "as §2"}, "[11]": {"test_system": "Alopecurus myosuroides", "test": "Test Example 4: herbicidal effect by application to foliage (diluvial soil, plastic box)", "from_the_text": "as §2"}, "[12]": {"test_system": "Setaria viridis", "test": "Test Example 4: herbicidal effect by application to foliage (diluvial soil, plastic box)", "from_the_text": "as §2"}, "[13]": {"test_system": "Chenopodium album", "test": "Test Example 4: herbicidal effect by application to foliage (diluvial soil, plastic box)", "from_the_text": "as §2"}, "[14]": {"test_system": "Veronica persica", "test": "Test Example 4: herbicidal effect by application to foliage (diluvial soil, plastic box)", "from_the_text": "as §2"}, "[15]": {"test_system": "Stellaria media", "test": "Test Example 4: herbicidal effect by application to foliage (diluvial soil, plastic box)", "from_the_text": "as §2"}, "[16]": {"test_system": "Avena fatua", "test": "Test Example 4: herbicidal effect by application to foliage (diluvial soil, plastic box)", "from_the_text": "as §2"}, "[17]": {"test_system": "Echinochloa crus-galli var. crus-galli", "test": "Test Example 4: herbicidal effect by application to foliage (diluvial soil, plastic box)", "from_the_text": "as §2"}, "[18]": {"test_system": "Digitaria ciliaris", "test": "Test Example 4: herbicidal effect by application to foliage (diluvial soil, plastic box)", "from_the_text": "as §2"}, "[19]": {"test_system": "Galium spurium", "test": "Test Example 4: herbicidal effect by application to foliage (diluvial soil, plastic box)", "from_the_text": "as §2"}}, "data": [{"smiles": "CC(C)c1nnc2c(C(=O)Nc3ncnn3C)ccc(C(F)(F)F)n12", "note": "[4-001]", "values": [{"measurement": "effect on crop, g (Brassica campestris L.)", "setting": "[1]", "result": "0 (Herbicidal ratio of 5% or less (almost no effect))"}, {"measurement": "effect on crop, c (Glycine max)", "setting": "[2]", "result": "0 (Herbicidal ratio of 5% or less (almost no effect))"}, {"measurement": "effect on crop, f (Beta vulgaris ssp. vulgaris)", "setting": "[3]", "result": "2 (Herbicidal ratio of 20% or more and less than 40%)"}, {"measurement": "effect on crop, d (directly sowed Oryza sativa)", "setting": "[4]", "result": "2 (Herbicidal ratio of 20% or more and less than 40%)"}, {"measurement": "effect on crop, b (Zea mays)", "setting": "[5]", "result": "0 (Herbicidal ratio of 5% or less (almost no effect))"}, {"measurement": "effect on crop, e (Triticum aestivum)", "setting": "[6]", "result": "0 (Herbicidal ratio of 5% or less (almost no effect))"}, {"measurement": "herbicidal effect, L (Apera spica-venti.)", "setting": "[7]", "result": "0 (Herbicidal ratio of 5% or less (almost no effect))"}, {"measurement": "herbicidal effect, K (Lolium multiflorum Lam.)", "setting": "[8]", "result": "0 (Herbicidal ratio of 5% or less (almost no effect))"}, {"measurement": "herbicidal effect, M (Abutilon theophrasti)", "setting": "[9]", "result": "5 (Herbicidal ratio of 90% or more (almost completely withered))"}, {"measurement": "herbicidal effect, N (Amaranthus retroflexus)", "setting": "[10]", "result": "5 (Herbicidal ratio of 90% or more (almost completely withered))"}, {"measurement": "herbicidal effect, J (Alopecurus myosuroides)", "setting": "[11]", "result": "0 (Herbicidal ratio of 5% or less (almost no effect))"}, {"measurement": "herbicidal effect, G (Setaria viridis)", "setting": "[12]", "result": "2 (Herbicidal ratio of 20% or more and less than 40%)"}, {"measurement": "herbicidal effect, O (Chenopodium album)", "setting": "[13]", "result": "5 (Herbicidal ratio of 90% or more (almost completely withered))"}, {"measurement": "herbicidal effect, R (Veronica persica)", "setting": "[14]", "result": "3 (Herbicidal ratio of 40% or more and less than 70%)"}, {"measurement": "herbicidal effect, P (Stellaria media)", "setting": "[15]", "result": "3 (Herbicidal ratio of 40% or more and less than 70%)"}, {"measurement": "herbicidal effect, I (Avena fatua)", "setting": "[16]", "result": "1 (Herbicidal ratio of 5% or more and less than 20%)"}, {"measurement": "herbicidal effect, H (Echinochloa crus-galli var. crus-galli)", "setting": "[17]", "result": "3 (Herbicidal ratio of 40% or more and less than 70%)"}, {"measurement": "herbicidal effect, F (Digitaria ciliaris)", "setting": "[18]", "result": "1 (Herbicidal ratio of 5% or more and less than 20%)"}, {"measurement": "herbicidal effect, Q (Galium spurium)", "setting": "[19]", "result": "3 (Herbicidal ratio of 40% or more and less than 70%)"}]}]}
